Measurements: patent US20230406883A1, “COMPOUNDS AND THEIR USE IN TREATMENT OF TACHYKININ RECEPTOR MEDIATED DISORDERS” (Embark Biotech ApS, priority 2020, published 2023)
“And” between values parts separate entries of the source, which are not always exact repeats. Equal values may be shown once. Numbered stars: 1 amine (or outer) side, 2 acyl side, 3 side chain; on linkers, the order of the positions; unused ones are H or OH. Square brackets hold non-standard residues; d marks the D form. Peptide text beside a SMILES is read from it. * marks the point of attachment. C18 diacid = O=C(O)CCCCCCCCCCCCCCCCC(=O)*; γGlu = O=C(O)[C@H](CCC(=O)[*:2])N[*:1]; Conj‑Neu‑C18DA = not defined here; NMeL = CN[C@@H](CC(C)C)C(=O)O; hSer = N[C@@H](CCO)C(=O)O; Nle = CCCC[C@H](N)C(=O)O; AEEA = NCCOCCOCC(=O)O; Aib = CC(C)(N)C(=O)O

Tests used:
Experiment in all cases: IP3 assay (inositol trisphosphate, 3H-myoinositol) in transiently transfected COS-7 cells
Assay type in all cases: cell-based
hNK1R = target: T1, hNK1R (Homo sapiens, UniProt P25103); conditions: for EC50 / hNK1R, IP3 Efficacy: COS-7 cells; for EC50: 0.2% ovalbumin buffer; for hNK1R, IP3 Efficacy: figure legends: percent of 10^-6 M NKA
T1 construct: host or cells: COS-7
Method: (§1) Agonist-induced G-protein coupled receptor (GPCR) activation was measured by an Inositol-1,4,5-Trisphosphate [^3H] Radioreceptor Assay (IPs Assay). Assays were carried out using COS-7 cells transiently transfected by calcium phosphate transfection with a vector pcDNA3.1(+) encoding one of the indicated receptors (Genscript). Briefly, DNA mixed with CaCl2 (2 M) and TE-buffer (10 mM Tris-HCl, 1 mM EDTA, pH 7.5) was dropwise added to 2×HBS (50 mM HEPES, 280 mM NaCl, 1.5 mM NaH2PO4, pH 7.2) and incubated for 45 min at room temperature (22±2° C.). The mixture and a final concentration of 100 μM Chloroquine were added to the cells and left to incubate for 5 hours at 37° C. under standard cell culture conditions (10% CO2) before changing medium to fresh medium containing 5 μl/mL Myo-[2-^3H(N)]-inositol (labelling medium).
(§2) The IP3 assay takes advantage of the tachykinin receptors' ability to induce production of the inositol trisphosphate (IP3) second messenger upon agonist (ligand) binding on receptor expressing cells following an initial ^3H-inositol labelling period. In effect this means that production of the second messenger IP3 as a measure of receptor activity can be assessed by counting ^3H-activity.
(§3) Assay solutions used: Wash buffer (HBSS), Assay buffer (HBSS+10 mM LiCl and 0,2% w/v ovalbumin), Lysis buffer (10 mM formic acid), and SPA YSI beads (12.5 mg/ml in H2O). The assay was performed the day after transfection. Briefly, labelling medium was aspirated, and plates were washed ×1 in wash buffer before adding 100 μl assay buffer, pre-incubated for 30 min followed by 120 min incubation with agonist, both at 37° C. After incubation, plates were immediately placed on ice and the incubation medium was aspirated and 40 μl of 10 mM formic acid per well was added. Plates were incubated for at least 30 min on ice. 60 μl (1 mg/well) SPA YSI beads/well was pipetted into a solid white 96 wells plate and 35 μl of the lysis solution was transferred to the plate before covering plates with seal cover and shaking for 10 min. (max speed). Centrifuge plates and leave for 8 hours at room temperature before counting the plates in a MicroBeta plate counter (Perkin Elmer).

hNK2R = target: T2, hNK2R (Homo sapiens, UniProt P21452); conditions: for EC50 / hNK2R, IP3 Efficacy: COS-7 cells; for EC50: 0.2% ovalbumin buffer; for hNK2R, IP3 Efficacy: figure legends: percent of 10^-6 M NKA
T2 construct: host or cells: COS-7
T2 sequence (P21452 1-398): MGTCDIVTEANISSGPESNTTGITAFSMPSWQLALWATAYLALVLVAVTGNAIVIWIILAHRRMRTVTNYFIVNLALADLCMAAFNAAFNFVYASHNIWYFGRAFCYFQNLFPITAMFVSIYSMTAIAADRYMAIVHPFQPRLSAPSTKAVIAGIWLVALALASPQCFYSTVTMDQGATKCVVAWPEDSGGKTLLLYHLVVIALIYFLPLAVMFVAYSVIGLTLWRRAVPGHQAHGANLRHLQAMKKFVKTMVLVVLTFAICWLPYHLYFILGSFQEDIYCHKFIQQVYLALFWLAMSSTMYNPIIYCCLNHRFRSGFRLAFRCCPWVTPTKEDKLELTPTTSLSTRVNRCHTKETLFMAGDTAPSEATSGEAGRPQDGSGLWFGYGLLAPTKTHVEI
Method: as §1, §2, §3

hNK3R = target: T3, hNK3R (Homo sapiens, UniProt P29371); conditions: for EC50 / hNK3, IP3 Efficacy: COS-7 cells; for EC50: 0.2% ovalbumin buffer, read-out: hNK3, IP3 EC50; for hNK3, IP3 Efficacy: figure legends: percent of 10^-6 M NKA
T3 construct: host or cells: COS-7
T3 sequence (P29371 1-465): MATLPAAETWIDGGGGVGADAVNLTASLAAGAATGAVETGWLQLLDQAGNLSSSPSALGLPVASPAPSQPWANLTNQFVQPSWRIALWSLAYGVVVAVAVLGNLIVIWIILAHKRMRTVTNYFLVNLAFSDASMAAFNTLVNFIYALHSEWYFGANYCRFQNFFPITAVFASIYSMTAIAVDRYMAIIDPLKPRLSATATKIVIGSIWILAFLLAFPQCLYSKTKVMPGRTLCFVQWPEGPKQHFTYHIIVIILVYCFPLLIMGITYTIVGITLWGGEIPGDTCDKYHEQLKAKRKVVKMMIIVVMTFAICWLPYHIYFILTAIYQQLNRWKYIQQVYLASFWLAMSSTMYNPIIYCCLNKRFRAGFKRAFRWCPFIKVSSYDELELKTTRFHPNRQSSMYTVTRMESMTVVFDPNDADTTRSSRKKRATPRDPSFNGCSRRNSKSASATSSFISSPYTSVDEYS
Method: as §1, §2, §3

T1 sequence (P25103 whole entry): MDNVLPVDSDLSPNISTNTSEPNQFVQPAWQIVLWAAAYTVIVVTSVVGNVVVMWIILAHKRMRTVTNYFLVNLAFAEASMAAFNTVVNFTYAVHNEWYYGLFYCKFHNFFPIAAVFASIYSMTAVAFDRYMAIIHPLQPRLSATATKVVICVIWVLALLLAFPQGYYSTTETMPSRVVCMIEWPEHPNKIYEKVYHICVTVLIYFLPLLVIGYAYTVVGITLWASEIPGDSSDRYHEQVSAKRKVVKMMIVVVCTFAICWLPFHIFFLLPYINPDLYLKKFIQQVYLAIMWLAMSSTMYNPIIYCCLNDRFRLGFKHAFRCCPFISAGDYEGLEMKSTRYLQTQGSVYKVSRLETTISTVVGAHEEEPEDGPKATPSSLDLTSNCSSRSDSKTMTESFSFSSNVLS

| Molecule | EC50 (hNK1R) [nM] | hNK1R, IP3 Efficacy (hNK1R) [%] | EC50 (hNK2R) | hNK2R, IP3 Efficacy (hNK2R) [%] | EC50 (hNK3R) [nM] | hNK3, IP3 Efficacy (hNK3R) [%] | hNK1R receptor activation, in words (hNK1R) | hNK2R receptor activation, in words (hNK2R) | hNK3R receptor activation, in words (hNK3R) |
| --- | --- | --- | --- | --- | --- | --- | --- | --- | --- |
| CCCC[C@H](NC(=O)[C@H](CC(C)C)N(C)C(=O)CNC(=O)[C@H](CCCNC(=N)N)NC(=O)[C@H](Cc1ccccc1)NC(=O)[C@H](CCCCN)NC(=O)[C@H](CCC(=O)O)NC(=O)COCCOCCNC(=O)COCCOCCNC(=O)CC[C@H](NC(=O)CCCCCCCCCCCCCCCCC(=O)O)C(=O)O)C(N)=O [compound 315, *Glu;Lys;Phe;Arg;Gly;NmLeu;Nle;NH2] ({C18 diacid-γGlu-AEEA-AEEA}-EKFRG[NMeL][Nle]-NH2) |  | 0 | 47 nM | 60 |  | 0 |  |  |  |
| CCCC[C@H](NC(=O)[C@H](CC(C)C)NC(=O)CNC(=O)[C@@H](NC(=O)[C@H](Cc1ccccc1)NC(=O)[C@H](CO)NC(=O)[C@H](CC(=O)O)NC(=O)[C@@H](NC(=O)[C@H](CCCCN)NC(=O)COCCOCCNC(=O)COCCOCCNC(=O)CC[C@H](NC(=O)CCCCCCCCCCCCCCCCC(=O)O)C(=O)O)[C@@H](C)O)C(C)C)C(N)=O [compound 308, *Lys;Thr;Asp;Ser;Phe;Val;Gly;Leu;Nle;NH2] | ~164 | 60 | 96 nM | 65 | 1000 | 93 |  |  |  |
| COCC[C@H](NC(=O)[C@H](CC(C)C)N(C)C(=O)CNC(=O)[C@@H](NC(=O)[C@H](Cc1ccc(O)cc1)NC(=O)[C@H](CCCCN)NC(=O)[C@H](CCC(=O)O)NC(=O)COCCOCCNC(=O)COCCOCCNC(=O)CC[C@H](NC(=O)CCCCCCCCCCCCCCCCC(=O)O)C(=O)O)[C@@H](C)O)C(N)=O [compound 381, *Glu;Lys;Tyr;Thr;Gly;NmLeu;Metox;NH2] ({C18 diacid-γGlu-AEEA-AEEA}-EKYTG[NMeL][hSer](Me)-NH2) |  | 0 | 9.3 nM | 85 |  | 0 |  |  |  |
| *Asp;Lys;Pro;Val;Gly;NmLeu;Nle;NH2 ({Conj‑Neu‑C18DA}-DKPVG[NMeL][Nle]-NH2; reading uncertain; also: printed as *Asp;Lys;Pro;Val;Gly;NmLeu;Nle;NH2) [compound 362, * is Conj-Neu-C18DA protractor on N-terminal α-amino group] |  | 0 |  | 0 |  | 0 | complete loss of receptor activation on NK1-3Rs | complete loss of receptor activation on NK1-3Rs | complete loss of receptor activation on NK1-3Rs |
| CCCC[C@H](NC(=O)[C@H](CC(C)C)N(C)C(=O)CNC(=O)[C@@H](NC(=O)[C@H](Cc1ccccc1)NC(=O)[C@H](CCCCNC(=O)COCCOCCNC(=O)COCCOCCNC(=O)CC[C@H](NC(=O)CCCCCCCCCCCCCCCCC(=O)O)C(=O)O)NC(=O)[C@@H](N)CC(=O)O)C(C)C)C(N)=O [compound 307, Asp;Lys*;Phe;Val;Gly;NmLeu;Nle;NH2] |  | 64 | 24 nM | 80 | ~12000 | 85 |  |  |  |
| CCCC[C@H](NC(=O)[C@H](CC(C)C)N(C)C(=O)CNC(=O)[C@@H](NC(=O)[C@H](Cc1ccccc1)NC(=O)[C@H](CO)NC(=O)[C@H](CC(=O)O)NC(=O)[C@@H](NC(=O)[C@H](CCCCN)NC(=O)COCCOCCNC(=O)COCCOCCNC(=O)CC[C@H](NC(=O)CCCCCCCCCCCCCCCCC(=O)O)C(=O)O)[C@@H](C)O)C(C)C)C(N)=O [compound 312, *Lys;Thr;Asp;Ser;Phe;Val;Gly;NmLeu;Nle;NH2] | ~178 | 44 | 25 nM | 65 | 513 | 80 |  |  |  |

Now from value to molecule, other results behind:

| EC50 (hNK1R) [nM] | hNK1R, IP3 Efficacy (hNK1R) [%] | EC50 (hNK2R) | hNK2R, IP3 Efficacy (hNK2R) [%] | EC50 (hNK3R) [nM] | hNK3, IP3 Efficacy (hNK3R) [%] | Molecule | hNK1R receptor activation, in words (hNK1R) | hNK2R receptor activation, in words (hNK2R) | hNK3R receptor activation, in words (hNK3R) |
| --- | --- | --- | --- | --- | --- | --- | --- | --- | --- |
| 23 | 70 | 4 nM and 1.3 nM | 80 | 43 | 100 | CCCC[C@H](NC(=O)[C@H](CC(C)C)N(C)C(=O)CNC(=O)[C@@H](NC(=O)[C@H](Cc1ccccc1)NC(=O)[C@H](CCCNC(=N)N)NC(=O)[C@H](CCC(=O)O)NC(=O)COCCOCCNC(=O)COCCOCCNC(=O)CC[C@H](NC(=O)CCCCCCCCCCCCCCCCC(=O)O)C(=O)O)C(C)C)C(N)=O [compound 337, *Glu;Arg;Phe;Val;Gly;NmLeu;Nle;NH2] ({C18 diacid-γGlu-AEEA-AEEA}-ERFVG[NMeL][Nle]-NH2) |  |  |  |
| ~136 | 66 | 4.3 nM | 89 |  | 0 | CCCC[C@H](NC(=O)[C@H](CC(C)C)NC(=O)C(C)(C)NC(=O)[C@@H](NC(=O)[C@H](Cc1ccccc1)NC(=O)[C@H](CCCCN)NC(=O)[C@H](CC(=O)O)NC(=O)COCCOCCNC(=O)COCCOCCNC(=O)CC[C@H](NC(=O)CCCCCCCCCCCCCCCCC(=O)O)C(=O)O)C(C)C)C(N)=O [compound 373, *Asp;Lys;Phe;Val;Aib;Leu;Nle;NH2] ({C18 diacid-γGlu-AEEA-AEEA}-DKFV[Aib]L[Nle]-NH2) |  |  |  |
|  | 0 | 28 nM | 75 |  | 0 | CCCC[C@H](NC(=O)[C@H](CC(C)C)N(C)C(=O)CNC(=O)[C@@H](NC(=O)[C@H](Cc1ccccc1)NC(=O)[C@H](CCCCN)NC(=O)[C@H](CCC(=O)O)NC(=O)COCCOCCNC(=O)COCCOCCNC(=O)CC[C@H](NC(=O)CCCCCCCCCCCCCCCCC(=O)O)C(=O)O)[C@@H](C)O)C(N)=O [compound 397, *Glu;Lys;Phe;Thr;Gly;NmLeu;Nle;NH2] ({C18 diacid-γGlu-AEEA-AEEA}-EKFTG[NMeL][Nle]-NH2) |  |  |  |
|  | 0 | 4.5 nM | 46 |  | 0 | CCCC[C@H](NC(=O)[C@H](CC(C)C)NC(=O)[C@@H](CO)NC(=O)[C@@H](NC(=O)[C@H](Cc1ccccc1)NC(=O)[C@H](CCCCN)NC(=O)[C@H](CC(=O)O)NC(=O)COCCOCCNC(=O)COCCOCCNC(=O)CC[C@H](NC(=O)CCCCCCCCCCCCCCCCC(=O)O)C(=O)O)C(C)C)C(N)=O [compound 385, *Asp;Lys;Phe;Val;dSer;Leu;Nle;NH2] ({C18 diacid-γGlu-AEEA-AEEA}-DKFV[dS]L[Nle]-NH2) |  |  |  |
| 12 | 110 | 0.5 nM | 100 | ~50000 | 35 | CCCC[C@H](NC(=O)[C@H](CC(C)C)N(C)C(=O)CNC(=O)[C@@H](NC(=O)[C@H](Cc1ccccc1)NC(=O)[C@H](CCCCN)NC(=O)[C@@H](N)CC(=O)O)C(C)C)C(N)=O [compound 375, Asp;Lys;Phe;Val;Gly;NmLeu;Nle;NH2] |  |  |  |
